Data: patent US6765022B2, “Cyclohexylamine derivatives as subtype selective nmda receptor antagonists” (Warner-Lambert Company, priority 2000, dated 2004)
Where a name gives a salt, the structure may show the parent alone.

Key:
[1] = molecular target: T1, [3H]ifenprodil binding, adult rat forebrain membranes (NMDA receptor) (Rattus norvegicus, UniProt P35439+Q00960); test: [3H]Ifenprodil binding assay; settings: 4 nM [3H]-ifenprodil, 2 hours at room temperature, pH 7.4
T1 construct: membrane fraction was prepared from frozen adult rat forebrains; tissue Zivic-Miller Laboratories, Inc; host or cells: adult rat forebrain, buffy coat membrane fraction
Method: All buffers and reagents used in assay incubations or to dissolve drugs were prepared using water purified through a Milli-Q reverse osmosis system (Millipore Corp, Bedford, Mass.) and treated with UV emissions. Prior to use in the assays, buffers were further filtered through a sterile Corning filtration unit (Corning Glass Works, Corning, N.Y.) containing a 0.2-μm filter. Buffer used to rinse the membranes on the assay filters was prepared with purified water, but was not refiltered and was stored no longer than 5 days. Stock solutions of the drugs (usually 10 mM) were dissolved in 20 mM HEPES-KOH buffer pH 7.4 (assay buffer) with the addition of 1 to 5 μL of glacial AcOH, if needed, to keep them in solution. For eliprodil the stock solution was buffer with the addition of 10% DMSO. All subsequent dilutions from stock were made in buffer.
An extensively washed buffy coat membrane fraction was prepared from frozen adult rat forebrains (Zivic-Miller Laboratories, Inc, Zelienople, Pa.) as described previously (Coughenour L. L.; Cordon, J. J., J. Pharmacol. Exp. Ther., 1997;280:584-592) and stored at −80° C. On the day of the assay, pellets were resuspended in 35 mL of assay buffer at pH 7.4 using a Polytron setting 6. After incubation at 37° C. for 30 minutes in a shaking water bath, the homogenate was centrifuged 40,000×g for 10 minutes at 4° C. The pellets were resuspended in fresh buffer and centrifuged 3 more times before final suspension for use in the assay.
[^3H]Ifenprodil Binding. […] The filter mat was supported on a cold (−20° C.) teflon support, and filters from individual wells were separated and placed in Mini Poly-Q vials (Beckman Instruments Inc, Fullerton, Calif.) and filled with 4 mL of scintillation cocktail (Beckman Ready Protein^+). Radioactivity retained on the filter was determined by liquid scintillation spectrophotometry. […]
Data Analysis. Binding curves were statistically analyzed for a best one- or two-site competition fit using GraphPad Prism software (GraphPad Software Inc, San Diego, Calif.). […]

NR1A/NR2B = molecular target: T2, NR1A/NR2B (Rattus norvegicus, UniProt P35439+Q00960); test: Electrophysiological assay at NMDA receptor subunits expressed in Xenopus oocytes (two-electrode voltage clamp); type: cell-based; settings: cloned rat NR1A/NR2B in Xenopus oocytes; currents activated by glutamate (100 μM) and glycine (1-100 μM); read-out: NR1A/NR2B Oocyte IC50
T2 construct: expressed in transfected cells; host or cells: Xenopus laevis oocytes injected with cRNA
Source text: Preparation of RNA. cDNA clones encoding the NR1A, NR2A, NR2B, and NR2C rat NMDA receptor subtypes were used. (See Moriyoshi et al., Nature, (Lond.), 1991;354:31-37); Kutsuwada et al., Nature (Lond.), 1992;358:36-41; Monyer et al., Science (Washington, D.C.), 1992;256:1217-1221; Ikeda et al., FEBS Lett., 1992;313:34-38; Ishii et al., J. Biol. Chem., 1993;268:2836-2843 for details of these clones or their mouse homologs.) The clones were transformed into appropriate host bacteria, and plasmid preparations were made with conventional DNA purification techniques. A sample of each clone was linearized by restriction enzyme digestion […] was synthesized with T3 RNA polymerase. The cRNA was diluted to 400 ng/μL and stored in 1-μL aliquots at −80° C. until injection.
The Xenopus Oocyte Expression System. […]
Electrical recordings were made using a conventional two-electrode voltage clamp (Dagan TEV-200) over periods ranging between 3 to 21 days following injection (Woodward et al., Mol. Pharmacol., 1992;41:89-103). […] Inhibitory potency of the novel antagonists was assessed on responses elicited by fixed concentrations of glutamate and glycine, by measuring reductions in current induced by progressively increasing concentrations of antagonist. […]

T1 sequence (Q00960 27-1482, other chains not shown): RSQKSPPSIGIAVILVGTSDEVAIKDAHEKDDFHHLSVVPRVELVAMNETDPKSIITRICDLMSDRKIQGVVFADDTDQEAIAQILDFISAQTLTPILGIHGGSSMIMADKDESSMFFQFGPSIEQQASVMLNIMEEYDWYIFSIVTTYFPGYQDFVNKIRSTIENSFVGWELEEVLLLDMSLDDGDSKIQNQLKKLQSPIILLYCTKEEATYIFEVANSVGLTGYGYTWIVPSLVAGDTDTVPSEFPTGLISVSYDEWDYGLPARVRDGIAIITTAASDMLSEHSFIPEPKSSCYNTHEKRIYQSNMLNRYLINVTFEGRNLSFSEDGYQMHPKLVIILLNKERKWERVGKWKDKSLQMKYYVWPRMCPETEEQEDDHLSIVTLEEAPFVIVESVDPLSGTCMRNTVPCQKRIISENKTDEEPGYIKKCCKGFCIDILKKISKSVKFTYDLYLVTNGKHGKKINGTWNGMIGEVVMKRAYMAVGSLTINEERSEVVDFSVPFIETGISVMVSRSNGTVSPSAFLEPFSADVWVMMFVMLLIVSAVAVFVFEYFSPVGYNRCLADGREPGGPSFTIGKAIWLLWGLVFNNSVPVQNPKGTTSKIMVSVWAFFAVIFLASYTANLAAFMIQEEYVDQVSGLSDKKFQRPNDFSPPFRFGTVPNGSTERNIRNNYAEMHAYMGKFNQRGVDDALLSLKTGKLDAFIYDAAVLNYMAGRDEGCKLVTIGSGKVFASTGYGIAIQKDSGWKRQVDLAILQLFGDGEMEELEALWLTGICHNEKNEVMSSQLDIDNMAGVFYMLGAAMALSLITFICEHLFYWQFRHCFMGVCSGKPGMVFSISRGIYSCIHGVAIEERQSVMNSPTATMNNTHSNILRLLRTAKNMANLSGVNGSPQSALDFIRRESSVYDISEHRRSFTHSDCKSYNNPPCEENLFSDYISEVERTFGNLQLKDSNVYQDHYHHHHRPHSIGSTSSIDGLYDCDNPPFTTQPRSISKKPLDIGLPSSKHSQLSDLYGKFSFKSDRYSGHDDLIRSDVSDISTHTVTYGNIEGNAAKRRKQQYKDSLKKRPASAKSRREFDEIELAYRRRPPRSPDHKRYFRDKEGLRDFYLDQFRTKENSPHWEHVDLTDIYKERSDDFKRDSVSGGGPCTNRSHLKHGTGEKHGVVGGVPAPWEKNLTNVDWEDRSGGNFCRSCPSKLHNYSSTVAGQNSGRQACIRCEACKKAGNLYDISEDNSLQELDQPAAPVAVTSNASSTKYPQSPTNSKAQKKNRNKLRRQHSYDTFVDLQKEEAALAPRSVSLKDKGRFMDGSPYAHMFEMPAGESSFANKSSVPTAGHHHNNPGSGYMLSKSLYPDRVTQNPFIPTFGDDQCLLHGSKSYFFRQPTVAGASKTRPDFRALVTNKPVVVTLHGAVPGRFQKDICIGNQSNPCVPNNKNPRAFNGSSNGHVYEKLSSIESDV
T2 sequence (Q00960 27-1482, other chains not shown): as above

Row | SMILES | melting point | IC50 [1] | IC50 (NR1A/NR2B)
1 | Oc1ccc(CCN[C@H]2CC[C@H](c3ccccc3)CC2)cc1 (as salt: HCl) [Example 5, trans-4-[2-(4-Phenylcyclohexylamino)ethyl]phenol] | 238 to 241 °C |  | 
2 | Oc1ccc(CCCN[C@H]2CC[C@H](c3ccccc3)CC2)cc1 [Example 1b, trans4-[3-(4-Phenylcyclohexylamino)propyl]phenol] | 211 to 214 °C | 0.084 µM | 
3 | C[C@H](N[C@H]1CC[C@H](c2ccccc2)CC1)[C@@H](O)c1ccc(O)cc1 [Example 2a, trans 4-[(1S,2S)-1-Hydroxy-2-(4-phenylcyclohexylamino)propyl]phenol] |  | 1.29 µM | 
4 | C[C@H](N[C@H]1CC[C@@H](c2ccccc2)CC1)[C@@H](O)c1ccc(O)cc1 [Example 2b, cis-4-[(1S,2S)-1-Hydroxy-2-(4-phenylcyclohexylamino)propyl]phenol] |  | 0.045 µM | 0.15 µM
5 | CN(CCc1ccc(O)cc1)[C@H]1CC[C@H](c2ccccc2)CC1 (as salt: HCl) [Example 6, trans 4-{2-[Methyl(4-phenylcyclohexyl)amino]ethyl}phenol] | 97 to 105 °C |  | 
6 | CN(CCCc1ccc(O)cc1)[C@H]1CC[C@H](c2ccccc2)CC1 (as salt: HCl) [Example 4, trans-4-{3-[Methyl-(4-phenylcyclohexyl)amino]propyl}phenol] | 249 to 255 °C |  | 
